“Also recorded” adds a separate entry of the source.
What was measured:
[1] = tested on: trk; assay: trk tyrosine phosphorylation in PC12 cells (immunoprecipitation, anti-phosphotyrosine immunoblot); type: cell-based
Description: To measure the status of trk tyrosine phosphorylation, PC12 cells were lysed and immunoprecipitated with anti-trk serum. The trk proteins were subjected to 7.5% SDS-PAGE and analyzed by immunoblotting with anti-phosphotyrosine antibodies as described in detail in the literature [Kaplan, D. R. et al., "PDGF beta receptor stimulates tyrosine phosphorylation of GAP and association of GAP with a signaling complex," Cell 61:125-133 (1990)]. Tyrosine phosphorylation of cellular proteins was assayed by probing Western blots of lysates of PC12 cells incubated with K-252b and NT-3 or NGF with anti-phosphotyrosine antibodies. Phospholipase C gammal was identified in these blots as described elsewhere [Vetter, M.L. et al., "Nerve growth factor rapidly stimulates tyrosine phosphorylation of phospholipase C-gammal by a kinase activity associated with the product of trk protooncogene," Proc. Natl Acad. Sci. USA 88:5650-5654 (1991)].
Experiments on PC12 cells confirmed observations made on primary neuron cultures. Treatment with K-252b stimulated NT-3 induced neurite outgrowth and trk tyrosine phosphorylation in PC12 cells while inhibiting NGF induced effects. PC12 cells were incubated for 48 hours with K-252b (50 nM) and NT-3 or NGF (50 ng/ml). FIG. 4A illustrates the % cells with neurites after 48 hours incubation. Neurites were scored if they were a length of one cell body or more. PC12 cells were subsequently lysed and immunoprecipitated with anti-trk serum. trk proteins were subjected to SDS-PAGE and analyzed by immunoblotting with anti-phosphotyrosine antibodies (FIG. 4B). Lane 1, NT-3 +K-252b; lane 2, NT-3; lane 3, NGF +K-252b; lane 4, NGF. For FIG. 4C, PC12 cells were incubated for 1 hour in K-252b (50 nM or 10 μM) and with NT-3 or NGF for 5 minutes prior to lysis; other methods were the same as described for FIG. 4B. Lane 1, NT-3+10 μM K-252b; lane 2, NT-3±50 nM K-252b; lane 3, NT-3; lane 4, NGF+10 μM K-252b; lane 5, NGF+50 nM K-252b; lane 6, NGF; lane 7, untreated control.

[2] = Cytotoxicity in vitro; type: cell-based

Question: For `CC12OC(CC1(O)C(=O)O)n1c3ccccc3c3c4c(c5c6ccccc6n2c5c31)CNC4=O` (centres unmarked) [K-252b], which “trk tyrosine phosphorylation with NT-3” value ([1]; 50 nM K-252b + NT-3, 48 hours) is on record?
Answer: clear increase

Question: And the “effect on NGF-induced trk phosphorylation” value ([1]; 10 μM K-252b, 1 hour, then NGF 5 minutes)?
Answer: partially inhibited

Question: What about the “trk tyrosine phosphorylation with NT-3” value ([1]; 1 hour K-252b followed by 5 minutes NT-3) of the same compound?
Answer: greatly enhanced

Question: And the “trk tyrosine phosphorylation, inhibitor alone without NT-3” value ([1]; K-252b alone)?
Answer: identical to untreated controls

Question: And the cytotoxicity [2]?
Answer: lacked cytotoxicity; also recorded: non-toxic

Source: patent publication US6300327A, “Compositions and methods for potentiation of neurotrophin activity” (The University of Southern California, priority 1997, dated 2001)
